Laboratory results from ChEMBL document CHEMBL5727989, “Compounds useful as inhibitors of ATR kinase” (2020).

Target: Serine/threonine-protein kinase ATR (Homo sapiens, UniProt Q13535)
Assay: Inhibition Assay: Assays were carried out at 25° C. in the presence of 5 nM full-length ATR. An assay stock buffer solution was prepared containing all of the reagents listed above, with the exception of ATP and the test compound of interest. 13.5 μL of the stock solution was placed in a 96 well plate followed by addition of 2 μL of DMSO stock containing serial dilutions of the test compound (typically starting from a final concentration of 15 μM with 3-fold serial dilutions) in duplicate (final DMSO concentration 7%). The plate was pre-incubated for 10 minutes at 25° C. and the reaction initiated by addition of 15 μL [γ-33P]ATP (final concentration 10 μM). The reaction was stopped after 24 hours by the addition of 30 μL 0.1M phosphoric acid containing 2 mM ATP. A multiscreen phosphocellulose filter 96-well plate (Millipore, Cat no. MAPHN0B50) was pretreated with 100 μL 0.2M phosphoric acid prior to the addition of 45 μL of the stopped assay mixture. The plate was washed with 5×200 μL 0.2M phosphoric acid. After drying, 100 μL Optiphase SuperMix liquid scintillation cocktail (Perkin Elmer) was added to the well prior to scintillation counting (1450 Microbeta Liquid Scintillation Counter, Wallac).

Serine/threonine-protein kinase ATR, sequence (Q13535 whole entry): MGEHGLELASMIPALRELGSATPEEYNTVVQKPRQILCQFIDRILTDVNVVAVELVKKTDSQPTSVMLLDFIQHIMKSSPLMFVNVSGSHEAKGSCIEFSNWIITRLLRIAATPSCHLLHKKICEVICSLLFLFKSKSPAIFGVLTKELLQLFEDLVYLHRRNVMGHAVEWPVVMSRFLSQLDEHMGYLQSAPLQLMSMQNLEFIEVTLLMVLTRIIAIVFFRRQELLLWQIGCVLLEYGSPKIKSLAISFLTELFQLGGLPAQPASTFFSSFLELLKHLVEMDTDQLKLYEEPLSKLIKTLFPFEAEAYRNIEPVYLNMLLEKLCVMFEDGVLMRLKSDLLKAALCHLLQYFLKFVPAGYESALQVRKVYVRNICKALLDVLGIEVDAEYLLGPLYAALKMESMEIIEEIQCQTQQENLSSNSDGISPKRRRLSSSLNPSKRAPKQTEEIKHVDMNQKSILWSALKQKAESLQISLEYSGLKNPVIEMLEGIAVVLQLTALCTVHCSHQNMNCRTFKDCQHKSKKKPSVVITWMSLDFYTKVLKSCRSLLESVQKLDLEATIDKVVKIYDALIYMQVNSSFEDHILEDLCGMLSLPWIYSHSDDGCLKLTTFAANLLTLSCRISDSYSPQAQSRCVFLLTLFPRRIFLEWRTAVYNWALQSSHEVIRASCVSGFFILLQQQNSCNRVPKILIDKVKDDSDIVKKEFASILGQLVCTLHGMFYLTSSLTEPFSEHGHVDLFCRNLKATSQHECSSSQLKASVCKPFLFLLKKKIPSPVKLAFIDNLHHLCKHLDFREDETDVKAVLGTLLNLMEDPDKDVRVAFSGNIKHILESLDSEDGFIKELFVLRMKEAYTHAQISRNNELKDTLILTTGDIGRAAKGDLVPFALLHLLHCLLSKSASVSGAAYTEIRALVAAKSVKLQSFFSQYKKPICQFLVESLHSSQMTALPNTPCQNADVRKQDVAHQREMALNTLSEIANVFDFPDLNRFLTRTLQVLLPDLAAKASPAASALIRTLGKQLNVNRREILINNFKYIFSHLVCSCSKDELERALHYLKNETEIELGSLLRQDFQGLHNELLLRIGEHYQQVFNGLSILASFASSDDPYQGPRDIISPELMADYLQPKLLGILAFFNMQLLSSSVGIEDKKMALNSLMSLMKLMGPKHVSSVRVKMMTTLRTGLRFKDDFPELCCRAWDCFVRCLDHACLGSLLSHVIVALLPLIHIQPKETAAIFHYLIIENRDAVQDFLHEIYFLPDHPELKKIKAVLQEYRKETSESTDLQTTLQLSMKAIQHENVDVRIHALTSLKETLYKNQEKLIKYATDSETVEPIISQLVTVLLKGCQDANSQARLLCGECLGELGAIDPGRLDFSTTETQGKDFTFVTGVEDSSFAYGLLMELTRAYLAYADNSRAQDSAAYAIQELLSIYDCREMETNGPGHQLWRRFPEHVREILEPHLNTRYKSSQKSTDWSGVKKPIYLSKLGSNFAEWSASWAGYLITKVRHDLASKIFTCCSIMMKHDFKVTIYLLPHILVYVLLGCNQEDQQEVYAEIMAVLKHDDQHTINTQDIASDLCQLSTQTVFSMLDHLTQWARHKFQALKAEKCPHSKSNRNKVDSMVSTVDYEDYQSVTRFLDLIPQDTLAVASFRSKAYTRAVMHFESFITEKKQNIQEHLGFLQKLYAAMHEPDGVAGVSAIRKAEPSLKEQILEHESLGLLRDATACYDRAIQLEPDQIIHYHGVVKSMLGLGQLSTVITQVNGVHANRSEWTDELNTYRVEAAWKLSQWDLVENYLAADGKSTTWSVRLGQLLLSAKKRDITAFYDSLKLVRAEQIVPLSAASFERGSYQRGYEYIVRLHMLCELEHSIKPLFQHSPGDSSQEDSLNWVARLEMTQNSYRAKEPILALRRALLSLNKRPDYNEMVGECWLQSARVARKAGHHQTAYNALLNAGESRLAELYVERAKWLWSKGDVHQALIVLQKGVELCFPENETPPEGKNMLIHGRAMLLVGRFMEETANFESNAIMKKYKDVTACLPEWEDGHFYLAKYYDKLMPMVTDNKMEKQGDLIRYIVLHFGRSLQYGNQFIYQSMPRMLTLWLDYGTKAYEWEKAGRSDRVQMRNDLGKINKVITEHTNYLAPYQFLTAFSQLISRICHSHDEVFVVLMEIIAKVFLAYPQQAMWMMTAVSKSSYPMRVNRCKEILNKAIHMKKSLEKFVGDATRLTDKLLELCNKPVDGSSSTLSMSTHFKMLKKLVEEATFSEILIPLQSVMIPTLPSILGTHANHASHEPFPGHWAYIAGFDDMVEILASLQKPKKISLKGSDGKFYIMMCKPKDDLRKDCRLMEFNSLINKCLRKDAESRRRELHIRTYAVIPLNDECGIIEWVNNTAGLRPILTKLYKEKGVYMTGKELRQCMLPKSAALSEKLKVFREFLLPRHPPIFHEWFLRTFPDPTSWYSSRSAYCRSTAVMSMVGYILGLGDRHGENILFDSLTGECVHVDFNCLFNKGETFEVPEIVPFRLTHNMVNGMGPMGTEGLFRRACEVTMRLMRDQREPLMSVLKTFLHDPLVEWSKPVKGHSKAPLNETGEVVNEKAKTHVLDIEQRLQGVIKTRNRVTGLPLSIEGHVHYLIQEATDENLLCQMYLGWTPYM

| SMILES | Ki |
| --- | --- |
| COC1CCN(c2ccncc2NC(=O)c2c(N)nn3cc(F)cnc23)CC1 | in the range around 505 nM |
| CN(C)CCNC(=O)C1CCN(c2c(F)cncc2NC(=O)c2c(N)nn3cc(F)cnc23)CC1 | in the range around 505 nM |
| Cc1nn(C)cc1-c1ccncc1NC(=O)c1c(N)nn2cc(F)cnc12 | in the range around 505 nM |
| CNC(=O)C1CCN(c2c(F)cncc2NC(=O)c2c(N)nn3cc(F)cnc23)CC1 | in the range around 505 nM |
| Nc1nn2cc(F)cnc2c1C(=O)Nc1cnccc1N1CCCCC1 | in the range around 505 nM |
| Nc1nn2cc(F)cnc2c1C(=O)Nc1cnccc1N1CCOCC1 | in the range around 505 nM |
